# Measured values taken from PubChem BioAssay AID1259407 (Chemical Carcinogenesis Research Information System (CCRIS), 2018).
# Calls of active or inactive are those of the source. No rule for the calls is given here.
# System: CCRIS mutagenicity, Ames/micronucleus/aberration tests
# Assay: CCRIS mutagenicity studies
# [1] = Test System: AMES SALMONELLA TYPHIMURIUM, Strain/Indicator: TA100, Metabolic Activation: NONE, Method: STANDARD PLATE
# [2] = Test System: AMES SALMONELLA TYPHIMURIUM, Strain/Indicator: TA98, Metabolic Activation: NONE, Method: PREINCUBATION
# [3] = Test System: AMES SALMONELLA TYPHIMURIUM, Strain/Indicator: TA100, Metabolic Activation: NONE, Method: PREINCUBATION
smiles,measurement,setting,value
OC(c1ccc(Cl)cc1)(c1cncnc1)c1ccccc1Cl (centres undefined),mutagenic call,"End Point: In vitro chromosomal aberrations, Test System: Human lymphocytes, Metabolic Activation: None",inactive; negative
same,mutagenic call,"End Point: In vitro chromosomal aberrations, Test System: Human lymphocytes, Metabolic Activation: S-9",inactive; negative
same,mutagenic call,"End Point: In vivo micronucleus, Test System: Bone marrow polychromatic erythrocytes, Species: Mouse, Strain/Sex: Not specified/Male, Route: Oral",active; positive. statistically significant increase at 24 hr but no effects at 48 or 72
same,mutagenic call,"End Point: In vivo micronucleus, Test System: Bone marrow polychromatic erythrocytes, Species: Rat, Strain/Sex: Sprague-Dawley (Male and female), Route: Oral",inactive; negative
same,mutagenic call,"Test System: Ames Salmonella typhimurium, Strain/Indicator: TA98, Metabolic Activation: None, Method: Plate incorporation",inactive; negative
same,mutagenic call,"Test System: Ames Salmonella typhimurium, Strain/Indicator: TA98, Metabolic Activation: Rat, Liver, S-9, Method: Plate incorporation",inactive; negative
same,mutagenic call,"Test System: Ames Salmonella typhimurium, Strain/Indicator: TA100, Metabolic Activation: None, Method: Plate incorporation",inactive; negative
same,mutagenic call,"Test System: Ames Salmonella typhimurium, Strain/Indicator: TA100, Metabolic Activation: Rat, Liver, S-9, Method: Plate incorporation",inactive; negative
same,mutagenic call,"Test System: Ames Salmonella typhimurium, Strain/Indicator: TA1535, Metabolic Activation: None, Method: Plate incorporation",inactive; negative
same,mutagenic call,"Test System: Ames Salmonella typhimurium, Strain/Indicator: TA1535, Metabolic Activation: Rat, Liver, S-9, Method: Plate incorporation",inactive; negative
same,mutagenic call,"Test System: Ames Salmonella typhimurium, Strain/Indicator: TA1537, Metabolic Activation: None, Method: Plate incorporation",inactive; negative
same,mutagenic call,"Test System: Ames Salmonella typhimurium, Strain/Indicator: TA1537, Metabolic Activation: Rat, Liver, S-9, Method: Plate incorporation",inactive; negative
same,mutagenic call,"Test System: E. coli, Strain/Indicator: WP2uvrA-, Metabolic Activation: None, Method: Plate incorporation",inactive; negative
same,mutagenic call,"Test System: E. coli, Strain/Indicator: WP2uvrA-, Metabolic Activation: Rat, Liver, S-9, Method: Plate incorporation",inactive; negative
NC(Cc1c[nH]c2ccccc12)C(=O)O (centres undefined),mutagenic call,"Test System: AMES SALMONELLA TYPHIMURIUM, Strain/Indicator: TA98, Metabolic Activation: RAT LIVER S-9, CHLOROPHENE, Method: STANDARD PLATE (COMPOUND HEATED AT 250 DEGREES CELSIUS FOR 20 MIN)",inactive; negative
O=[N+]([O-])c1ccc2sncc2c1,mutagenic call,[1],active; positive
Oc1ccc(O)c2ccccc12,mutagenic call,"Test System: AMES SALMONELLA TYPHIMURIUM, Strain/Indicator: TA104, Metabolic Activation: NONE, Method: PREINCUBATION",active; positive
same,mutagenic call,"Test System: AMES SALMONELLA TYPHIMURIUM, Strain/Indicator: TA2637, Metabolic Activation: RAT, LIVER, S-9, PHENOBARBITAL AND 5,6-BENZOFLAVONE, Method: PREINCUBATION",active; positive
COc1cc(S(=O)(=O)O)c(C)cc1N=Nc1c(O)ccc2cc(S(=O)(=O)O)ccc12,mutagenic call,[2],inactive; negative
same,mutagenic call,"Test System: AMES SALMONELLA TYPHIMURIUM, Strain/Indicator: TA98, Metabolic Activation: NONE, Method: STANDARD PLATE",inactive; negative
same,mutagenic call,"Test System: AMES SALMONELLA TYPHIMURIUM, Strain/Indicator: TA98, Metabolic Activation: RAT LIVER S-9, AROCLOR 1254, Method: STANDARD PLATE",inactive; negative
same,mutagenic call,"Test System: AMES SALMONELLA TYPHIMURIUM, Strain/Indicator: TA98, Metabolic Activation: S-9, Method: PREINCUBATION",inactive; negative
same,mutagenic call,[3],inactive; negative
same,mutagenic call,[1],inactive; negative
same,mutagenic call,"Test System: AMES SALMONELLA TYPHIMURIUM, Strain/Indicator: TA100, Metabolic Activation: RAT LIVER S-9, AROCLOR 1254, Method: STANDARD PLATE",inactive; negative
same,mutagenic call,"Test System: AMES SALMONELLA TYPHIMURIUM, Strain/Indicator: TA100, Metabolic Activation: S-9, Method: PREINCUBATION",inactive; negative
Nc1ccc2nc3c(N)cccc3nc2c1,mutagenic call,[2],inactive; negative
same,mutagenic call,"Test System: AMES SALMONELLA TYPHIMURIUM, Strain/Indicator: TA98, Metabolic Activation: RAT, LIVER, S-9, PCB, Method: PREINCUBATION",active; positive
CC(=O)NNC(=O)c1ccccn1,mutagenic call,"Test System: AMES SALMONELLA TYPHIMURIUM, Strain/Indicator: TA98, Metabolic Activation: HAMSTER, LIVER, S-9, AROCLOR 1254, Method: PREINCUBATION",inactive; negative
same,mutagenic call,[2],inactive; negative
same,mutagenic call,"Test System: AMES SALMONELLA TYPHIMURIUM, Strain/Indicator: TA98, Metabolic Activation: RAT, LIVER, S-9, AROCLOR 1254, Method: PREINCUBATION",inactive; negative
same,mutagenic call,"Test System: AMES SALMONELLA TYPHIMURIUM, Strain/Indicator: TA100, Metabolic Activation: HAMSTER, LIVER, S-9, AROCLOR 1254, Method: PREINCUBATION",inactive; negative
same,mutagenic call,[3],inactive; negative
same,mutagenic call,"Test System: AMES SALMONELLA TYPHIMURIUM, Strain/Indicator: TA100, Metabolic Activation: RAT, LIVER, S-9, AROCLOR 1254, Method: PREINCUBATION",inactive; negative
same,mutagenic call,"Test System: AMES SALMONELLA TYPHIMURIUM, Strain/Indicator: TA1535, Metabolic Activation: HAMSTER, LIVER, S-9, AROCLOR 1254, Method: PREINCUBATION",inactive; negative
same,mutagenic call,"Test System: AMES SALMONELLA TYPHIMURIUM, Strain/Indicator: TA1535, Metabolic Activation: NONE, Method: PREINCUBATION",inactive; negative
same,mutagenic call,"Test System: AMES SALMONELLA TYPHIMURIUM, Strain/Indicator: TA1535, Metabolic Activation: RAT, LIVER, S-9, AROCLOR 1254, Method: PREINCUBATION",inactive; negative
same,mutagenic call,"Test System: AMES SALMONELLA TYPHIMURIUM, Strain/Indicator: TA1537, Metabolic Activation: HAMSTER, LIVER, S-9, AROCLOR 1254, Method: PREINCUBATION",inactive; negative
same,mutagenic call,"Test System: AMES SALMONELLA TYPHIMURIUM, Strain/Indicator: TA1537, Metabolic Activation: NONE, Method: PREINCUBATION",inactive; negative
same,mutagenic call,"Test System: AMES SALMONELLA TYPHIMURIUM, Strain/Indicator: TA1537, Metabolic Activation: RAT, LIVER, S-9, AROCLOR 1254, Method: PREINCUBATION",inactive; negative
O=C(Cn1ccnc1[N+](=O)[O-])NCc1ccccc1,mutagenic call,[1],active; positive
same,mutagenic call,"Test System: AMES SALMONELLA TYPHIMURIUM, Strain/Indicator: TA100, Metabolic Activation: RAT, LIVER, S-9, AROCLOR 1254, Method: STANDARD PLATE",active; positive
CC(Br)C(=O)N(C)Cc1ccccc1 (centres undefined),mutagenic call,"Test System: AMES SALMONELLA TYPHIMURIUM, Strain/Indicator: TA100, Metabolic Activation: MOUSE, LIVER, S-9, AROCLOR 1254, Method: STANDARD PLATE",inactive; negative
same,mutagenic call,[1],inactive; negative
